Laboratory results from US12492173B2, “Herbicidal substituted N-tetrazolyl aryl carboxamides” (Bayer Aktiengesellschaft, priority 2019, dated 2025).

Key:
Format in all cases: in vivo
Hordeum murinum = assay: Pre-emergence herbicidal action, HORMU; details: dosage 320 g/ha; for herbicidal activity HORMU: scored visually after 3 weeks vs untreated controls (100% = plants have died)
Text: (§1) 1. Pre-Emergence Herbicidal Action Against Harmful Plants Seeds of monocotyledonous and dicotyledonous weed plants and crop plants are laid out in sandy loam soil in wood-fiber pots and covered with soil. The compounds of the invention, formulated in the form of wettable powders (WP) or as emulsion concentrates (EC), are then applied to the surface of the covering soil in the form of an aqueous suspension or emulsion at a water application rate equating to 600 to 800 l/ha, with addition of 0.2% wetting agent. After the treatment, the pots are placed in a greenhouse and kept under good growth conditions for the trial plants. The damage to the test plants is scored visually after a test period of 3 weeks by comparison with untreated controls (herbicidal activity in percent (%): 100% activity=the plants have died, 0% activity=like control plants). […] The tables below illustrate, in an exemplary manner, the […] herbicidal action of the compounds according to the invention, the herbicidal activity being stated in percent. [table] In the experiments that follow, herbicidal action of numerous inventive compounds and the known compounds that are structurally closest from D1 (WO 2012/028579 A1) and D2 (WO 2018/202535 A1) were compared under the above-specified conditions by the pre-emergence and post-emergence method. The example numbers given in the tables relate to the compounds disclosed in the respective documents. In addition to the compounds disclosed in D1 and D2, the following compounds V-1 to V-14 that are encompassed by D1 or D2 but are not compounds specified therein were used in the comparative experiments: • V-1: 2-(methylsulfanyl)-3-(methylsulfinyl)-N-(1-methyl-1H-tetrazol-5-yl)-4-(trifluoromethyl)benzamide • V-2: 2-(methylsulfanyl)-3-(methylsulfonyl)-N-(1-methyl-1H-tetrazol-5-yl)-4-(trifluoromethyl)benzamide • V-3: 2,3-bis(ethylsulfanyl)-N-(1-methyl-1H-tetrazol-5-yl)-4-(trifluoromethyl)benzamide • V-4: 2-chloro-3-(ethylsulfanyl)-N-(1-methyl-1H-tetrazol-5-yl)-4-(trifluoromethyl)benzamide • V-5: 2-chloro-4-iodo-3-(methylsulfanyl)-N-(1-methyl-1H-tetrazol-5-yl)benzamide • V-6: 2-chloro-4-iodo-3-(methylsulfinyl)-N-(1-methyl-1H-tetrazol-5-yl)benzamide • V-7: 2-chloro-4-iodo-3-(methylsulfonyl)-N-(1-methyl-1H-tetrazol-5-yl)benzamide • V-8: 2-bromo-3-(methylsulfanyl)-N-(1-methyl-1H-tetrazol-5-yl)-4-(trifluoromethyl)benzamide • V-9: 2-bromo-3-(methylsulfinyl)-N-(1-methyl-1H-tetrazol-5-yl)-4-(trifluoromethyl)benzamide • V-10: 2-bromo-3-(methylsulfonyl)-N-(1-methyl-1H-tetrazol-5-yl)-4-(trifluoromethyl)benzamide • V-11: 2-bromo-3-(ethylsulfanyl)-N-(1-methyl-1H-tetrazol-5-yl)-4-(trifluoromethyl)benzamide • V-12: 2-bromo-3-(ethylsulfinyl)-N-(1-methyl-1H-tetrazol-5-yl)-4-(trifluoromethyl)benzamide • V-13: 2-bromo-3-(ethylsulfonyl)-N-(1-methyl-1-1H-tetrazol-5-yl)-4-(trifluoromethyl)benzamide • V-14: 2-cyclopropyl-3-(ethylsulfanyl)-N-(1-methyl-1H-tetrazol-5-yl)-4-(trifluoromethyl)benzamide Herbicidal Pre-Emergence Action: […]

Amaranthus retroflexus = assay: Pre-emergence herbicidal action, AMARE; details: dosage 320 g/ha; for herbicidal activity AMARE: scored visually after 3 weeks vs untreated controls (100% = plants have died)
In short: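 Seeds were covered with sandy loam soil, then received a pre-emergence surface spray of the WP- or EC-formulated compound. After 3 weeks under good greenhouse growth conditions, damage was scored visually in percent.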

Polygonum convolvulus = assay: Post-emergence herbicidal action, POLCO
In short: (§2)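 Greenhouse post-emergence test: weeds sown in sandy loam were sprayed once at one leaf, 2 to 3 weeks from sowing, with aqueous WP or EC preparations carrying 0.2% wetting agent. Effect is scored visually after about 3 weeks.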

Stellaria media = assay: Post-emergence herbicidal action, STEME; design: key: % herbicidal action vs untreated; 100 = plants died, 0 = like control
In short: as §2

Matricaria inodora = assay: Post-emergence herbicidal action, MATIN; design: key: % herbicidal action vs untreated; 100 = plants died, 0 = like control
In short: as §2

Lolium multiflorum = assay: Pre-emergence herbicidal action, LOLMU; details: dosage 320 g/ha, scored visually after 3 weeks vs untreated controls (100% = plants have died)
Text: as §1

Compound | herbicidal activity HORMU (Hordeum murinum) [%] | herbicidal activity AMARE (Amaranthus retroflexus) [%] | herbicidal action POLCO (Polygonum convolvulus; Dosage 80 g/ha) | herbicidal action STEME (Stellaria media; Dosage 80 g/ha) | herbicidal action MATIN (Matricaria inodora; Dosage 80 g/ha) | herbicidal action HORMU (Hordeum murinum) [%] | herbicidal action AMARE (Amaranthus retroflexus) [%] | herbicidal activity LOLMU (Lolium multiflorum) [%] | herbicidal action POLCO (Polygonum convolvulus; post-emergence, dosage 80 g/ha) [%] | herbicidal action STEME (Stellaria media; post-emergence, dosage 80 g/ha) [%] | herbicidal action MATIN (Matricaria inodora; post-emergence, dosage 80 g/ha) [%] | Herbicidal action against MATIN (Matricaria inodora; comparative experiment, post-emergence, 20 g of a.i./ha)
Cn1nnnc1NC(=O)c1ccc(C(F)(F)F)c(CS(C)(=O)=O)c1C(F)(F)C(F)(F)F [Example 1-552] | 80 | 100 | 90 | 90 | 90 |  |  |  |  |  |  | 
CCCn1nnnc1NC(=O)c1ccc(C(F)(F)F)c(CS(C)(=O)=O)c1SC [Example 3-163] | 90 | 100 | 90 | 100 | 90 |  |  |  |  |  |  | 
CCCn1nnnc1NC(=O)c1ccc(I)c(C[S+](C)[O-])c1Cl (stereo not shown) [Example 3-363] |  |  | 90 | 100 | 100 | 100 | 100 |  |  |  |  | 
CCn1nnnc1NC(=O)c1ccc(C(F)(F)F)c(C[S+]([O-])CC)c1Br (stereo not shown) [Example 2-384] |  | 100 |  |  |  |  |  | 100 | 80 | 100 | 100 | 
CSc1c(C(=O)Nc2nnnn2C)ccc(C(F)F)c1C[S+](C)[O-] (stereo not shown) [Example 1-171] | 80 | 100 | 100 | 100 | 90 |  |  |  |  |  |  | 
CCn1nnnc1NC(=O)c1ccc(C(F)(F)F)c(CS(C)(=O)=O)c1Cl [Example 2-298] |  | 100 | 90 | 100 | 100 |  |  | 90 |  |  |  | 
Cn1nnnc1NC(=O)c1ccc(C(F)F)c(CS(C)(=O)=O)c1Cl [Example 1-322] |  | 100 |  |  |  |  |  | 100 | 90 | 100 | 80 | 
CCCn1nnnc1NC(=O)c1ccc(C(F)F)c(CSCC)c1Cl [Example 3-323] |  | 100 | 80 | 100 | 90 |  |  | 100 |  |  |  | 
CC[S+]([O-])Cc1c(C(F)(F)F)ccc(C(=O)Nc2nnnn2C)c1Br (racemic) [Example 1-384] |  | 100 |  |  |  |  |  | 100 | 90 | 90 | 90 | 90
CCS(=O)(=O)Cc1c(C(F)F)ccc(C(=O)Nc2nnnn2C)c1Cl [Example 1-325] |  | 100 | 90 | 100 | 80 |  |  | 100 |  |  |  | 
CCn1nnnc1NC(=O)c1ccc(C(F)(F)F)c(CSC)c1Cl [Example 2-296] |  | 100 |  |  |  |  |  | 100 | 100 | 100 | 90 | 
CCn1nnnc1NC(=O)c1ccc(C(F)(F)F)c(CS(=O)(=O)CC)c1Br [Example 2-385] |  | 100 |  |  |  |  |  | 100 | 90 | 100 | 100 | 
